Columns and labels:
[1] = Oral bioavailability in human; assay type: ADME, organism-based; details: in vivo
[2] = In vitro rate of absorption observed as Caco-2 permeability in humans; assay type: ADME, cell-based; details: human, read-out: Papp e-6
[3] = Metabolic stability observed at 30 min after administration in human liver microsomes; assay type: ADME, Microsome; details: read-out: R

## NC(=O)N1c2ccccc2C=Cc2ccccc21 [CARBAMAZEPINE]
[1]
  bioavailability: 70%
[2]
  Papp: 22.8 ×10⁻⁶ cm/s
[3]
  remaining at 0.5 h: 96%

## OC[C@@H](O)[C@@H](O)[C@H](O)[C@H](O)CO [MANNITOL]
[1]
  bioavailability: 18%
[2]
  Papp: 2 ×10⁻⁶ cm/s
[3]
  remaining at 0.5 h: 100%

## CC(=O)CC(c1ccccc1)c1c(O)c2ccccc2oc1=O (centres undefined) [WARFARIN]
[2]
  Papp: 38.3 ×10⁻⁶ cm/s

## COc1ccc2c(c1)c(CC(=O)O)c(C)n2C(=O)c1ccc(Cl)cc1 [INDOMETHACIN]
[1]
  bioavailability: 98%
[2]
  Papp: 20.4 ×10⁻⁶ cm/s
[3]
  remaining at 0.5 h: 95%

## CC(C)(C)NC[C@H](O)COc1nsnc1N1CCOCC1 [TIMOLOL]
[1]
  bioavailability: 50%
[2]
  Papp: 12.8 ×10⁻⁶ cm/s
[3]
  remaining at 0.5 h: 71%

## CC(C)NCC(O)COc1cccc2ccccc12 (centres undefined) [PROPRANOLOL]
[1]
  bioavailability: 26%
[2]
  Papp: 41.9 ×10⁻⁶ cm/s
[3]
  remaining at 0.5 h: 29%

## COCCc1ccc(OCC(O)CNC(C)C)cc1 (centres undefined) [METOPROLOL]
[1]
  bioavailability: 38%
[2]
  Papp: 27 ×10⁻⁶ cm/s
[3]
  remaining at 0.5 h: 73%

Source: ChEMBL document CHEMBL1135799, “Graphical model for estimating oral bioavailability of drugs in humans and other species from their Caco-2 permeability and in vitro liver enzyme metabolic stability rates” (J Med Chem, 2002)
